In ChEMBL document CHEMBL1909294, “Translating clinical findings into knowledge in drug safety evaluation--drug induced liver injury prediction system (DILIps)” (PLoS Comput Biol, 2011):

Key:
Hepatotoxicity [1] = tested on: Hepatotoxicity;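 as to HepSE Combined Scores: combined hepatic side effect score as listed in the training data of the Drug Induced Liver Injury Prediction System (DILIps)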;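 as to HepSE bilirubinemia: bilirubinemia hepatic side effect score drawn from the DILIps training data, a prediction system for drug-induced liver injury; call rule not given here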;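 as to HepSE elevated liver function tests: hepatic side effect score for raised liver function tests, as recorded in the DILIps training set used for predicting drug-induced liver injury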; as to HepSE hepatic failure: call rule not given here;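 as to HepSE hepatomegaly: hepatic side effect score for hepatomegaly, taken from the training set of the DILIps drug-induced liver injury prediction system; call rule not given here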;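 as to HepSE jaundice: Jaundice-related hepatic side-effect score drawn from the training data of the DILIps (drug-induced liver injury prediction system); call rule not given here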;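 as to HepSE liver fatty: hepatic side effect score for fatty liver, taken from the DILIps training set for predicting drug-induced liver injury; call rule not given here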
Hepatotoxicity [2] = tested on: Hepatotoxicity; remark: listed apart in the source;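 as to HepSE Combined Scores: combined hepatic side effect score as listed in the training data of the Drug Induced Liver Injury Prediction System (DILIps)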;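 as to HepSE bilirubinemia: bilirubinemia hepatic side effect score drawn from the DILIps training data, a prediction system for drug-induced liver injury; call rule not given here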; as to HepSE hepatic failure: call rule not given here;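 as to HepSE hepatomegaly: hepatic side effect score for hepatomegaly, taken from the training set of the DILIps drug-induced liver injury prediction system; call rule not given here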;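 as to HepSE jaundice: Jaundice-related hepatic side-effect score drawn from the training data of the DILIps (drug-induced liver injury prediction system); call rule not given here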;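 as to HepSE liver fatty: hepatic side effect score for fatty liver, taken from the DILIps training set for predicting drug-induced liver injury; call rule not given here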
Hepatotoxicity [3] = tested on: Hepatotoxicity; remark: listed apart in the source;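 as to HepSE Combined Scores: combined hepatic side effect score as listed in the training data of the Drug Induced Liver Injury Prediction System (DILIps)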;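 as to HepSE bilirubinemia: bilirubinemia hepatic side effect score drawn from the DILIps training data, a prediction system for drug-induced liver injury; call rule not given here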; as to HepSE hepatic failure: call rule not given here;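 as to HepSE hepatomegaly: hepatic side effect score for hepatomegaly, taken from the training set of the DILIps drug-induced liver injury prediction system; call rule not given here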;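 as to HepSE jaundice: Jaundice-related hepatic side-effect score drawn from the training data of the DILIps (drug-induced liver injury prediction system); call rule not given here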;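 as to HepSE liver fatty: hepatic side effect score for fatty liver, taken from the DILIps training set for predicting drug-induced liver injury; call rule not given here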
Hepatotoxicity [4] = tested on: Hepatotoxicity; remark: listed apart in the source;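 as to HepSE Combined Scores: combined hepatic side effect score as listed in the training data of the Drug Induced Liver Injury Prediction System (DILIps)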;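 as to HepSE bilirubinemia: bilirubinemia hepatic side effect score drawn from the DILIps training data, a prediction system for drug-induced liver injury; call rule not given here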; as to HepSE hepatic failure: call rule not given here;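 as to HepSE hepatomegaly: hepatic side effect score for hepatomegaly, taken from the training set of the DILIps drug-induced liver injury prediction system; call rule not given here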;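 as to HepSE jaundice: Jaundice-related hepatic side-effect score drawn from the training data of the DILIps (drug-induced liver injury prediction system); call rule not given here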;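 as to HepSE liver fatty: hepatic side effect score for fatty liver, taken from the DILIps training set for predicting drug-induced liver injury; call rule not given here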
Hepatotoxicity [5] = tested on: Hepatotoxicity; remark: listed apart in the source; as to HepSE hepatic failure: call rule not given here
Hepatotoxicity [6] = tested on: Hepatotoxicity; remark: listed apart in the source; as to HepSE hepatic failure: call rule not given here
Hepatotoxicity [7] = tested on: Hepatotoxicity; remark: listed apart in the source
Hepatotoxicity [8] = tested on: Hepatotoxicity; remark: listed apart in the source
Hepatotoxicity [9] = tested on: Hepatotoxicity; remark: listed apart in the source
Hepatotoxicity [10] = tested on: Hepatotoxicity; remark: listed apart in the source
Hepatotoxicity [11] = tested on: Hepatotoxicity; remark: listed apart in the source
Hepatotoxicity [12] = tested on: Hepatotoxicity; remark: listed apart in the source
Hepatotoxicity [13] = tested on: Hepatotoxicity; remark: listed apart in the source
Hepatotoxicity [14] = tested on: Hepatotoxicity; remark: listed apart in the source

Row | SMILES | HepSE_jaundice (Hepatotoxicity [1]) | HepSE_hepatomegaly (Hepatotoxicity [2]) | HepSE_liver fatty (Hepatotoxicity [3]) | HepSE_Combined Scores (Hepatotoxicity [4]) | HepSE_cholelithiasis (Hepatotoxicity [5]) | HepSE_bilirubinemia (Hepatotoxicity [6]) | HepSE_hepatic failure (Hepatotoxicity [7]) | HepSE_elevated liver function tests (Hepatotoxicity [8]) | HepSE_liver disease (Hepatotoxicity [9]) | HepSE_cholecystitis (Hepatotoxicity [10]) | HepSE_hepatic necrosis (Hepatotoxicity [11]) | HepSE_liver function tests abnormal (Hepatotoxicity [12]) | HepSE_cirrhosis (Hepatotoxicity [13]) | HepSE_hepatitis (Hepatotoxicity [14]) | other results
1 | CC1(C)C(C=C(Cl)Cl)C1C(=O)OCc1cccc(Oc2ccccc2)c1 (configuration not stated) [PERMETHRIN] | 0 | 0 | 0 | 0 | 0 | 0 | 0 | 0 | 0 | 0 | 0 | 0 | 0 | 0 | –
2 | OCCN1CCN(CCCN2c3ccccc3Sc3ccc(Cl)cc32)CC1 [PERPHENAZINE] | 1 | 0 | 0 | 1 | 0 | 0 | 0 | 0 | 0 | 0 | 0 | 0 | 0 | 0 | –
3 | NNCCc1ccccc1 [PHENELZINE] | – | – | – | – | – | – | – | – | – | – | – | – | – | – | HepSE_jaundice (Hepatotoxicity [1]; Liver): 1; HepSE_hepatomegaly (Hepatotoxicity [2]; Liver): 0; HepSE_liver fatty (Hepatotoxicity [3]; Liver): 0; HepSE_Combined Scores (Hepatotoxicity [4]; Liver): 1; HepSE_cholelithiasis (Hepatotoxicity [5]; Liver): 0; HepSE_bilirubinemia (Hepatotoxicity [6]; Liver): 0; HepSE_hepatic failure (Hepatotoxicity [7]; Liver): 0; HepSE_elevated liver function tests (Hepatotoxicity [8]; Liver): 0; HepSE_liver disease (Hepatotoxicity [9]; Liver): 0; HepSE_cholecystitis (Hepatotoxicity [10]; Liver): 0; HepSE_hepatic necrosis (Hepatotoxicity [11]; Liver): 0; HepSE_liver function tests abnormal (Hepatotoxicity [12]; Liver): 0; HepSE_cirrhosis (Hepatotoxicity [13]; Liver): 0; HepSE_hepatitis (Hepatotoxicity [14]; Liver): 0
4 | CC(COc1ccccc1)N(CCCl)Cc1ccccc1 (configuration not stated) [PHENOXYBENZAMINE] | 0 | 0 | 0 | 0 | 0 | 0 | 0 | 0 | 0 | 0 | 0 | 0 | 0 | 0 | –
5 | CC(C)(N)Cc1ccccc1 [PHENTERMINE] | 0 | 0 | 0 | 0 | 0 | 0 | 0 | 0 | 0 | 0 | 0 | 0 | 0 | 0 | –
6 | Cc1ccc(N(CC2=NCCN2)c2cccc(O)c2)cc1 [PHENTOLAMINE] | 0 | 0 | 0 | 0 | 0 | 0 | 0 | 0 | 0 | 0 | 0 | 0 | 0 | 0 | –
7 | O=C1NC(=O)C(c2ccccc2)(c2ccccc2)N1 [PHENYTOIN] | – | – | – | – | – | – | – | – | – | – | – | – | – | – | HepSE_jaundice (Hepatotoxicity [1]; Liver): 0; HepSE_hepatomegaly (Hepatotoxicity [2]; Liver): 0; HepSE_liver fatty (Hepatotoxicity [3]; Liver): 0; HepSE_Combined Scores (Hepatotoxicity [4]; Liver): 1; HepSE_cholelithiasis (Hepatotoxicity [5]; Liver): 0; HepSE_bilirubinemia (Hepatotoxicity [6]; Liver): 0; HepSE_hepatic failure (Hepatotoxicity [7]; Liver): 0; HepSE_elevated liver function tests (Hepatotoxicity [8]; Liver): 0; HepSE_liver disease (Hepatotoxicity [9]; Liver): 0; HepSE_cholecystitis (Hepatotoxicity [10]; Liver): 0; HepSE_hepatic necrosis (Hepatotoxicity [11]; Liver): 0; HepSE_liver function tests abnormal (Hepatotoxicity [12]; Liver): 0; HepSE_cirrhosis (Hepatotoxicity [13]; Liver): 0; HepSE_hepatitis (Hepatotoxicity [14]; Liver): 1
8 | O=P(O)(O)O [PHOSPHORIC ACID] | – | – | – | – | – | – | – | – | – | – | – | – | – | – | HepSE_jaundice (Hepatotoxicity [1]; Liver): 0; HepSE_hepatomegaly (Hepatotoxicity [2]; Liver): 0; HepSE_liver fatty (Hepatotoxicity [3]; Liver): 0; HepSE_Combined Scores (Hepatotoxicity [4]; Liver): 0; HepSE_cholelithiasis (Hepatotoxicity [5]; Liver): 0; HepSE_bilirubinemia (Hepatotoxicity [6]; Liver): 0; HepSE_hepatic failure (Hepatotoxicity [7]; Liver): 0; HepSE_elevated liver function tests (Hepatotoxicity [8]; Liver): 0; HepSE_liver disease (Hepatotoxicity [9]; Liver): 0; HepSE_cholecystitis (Hepatotoxicity [10]; Liver): 0; HepSE_hepatic necrosis (Hepatotoxicity [11]; Liver): 0; HepSE_liver function tests abnormal (Hepatotoxicity [12]; Liver): 0; HepSE_cirrhosis (Hepatotoxicity [13]; Liver): 0; HepSE_hepatitis (Hepatotoxicity [14]; Liver): 0
9 | CC1=C(C/C=C(\C)CCC[C@H](C)CCC[C@H](C)CCCC(C)C)C(=O)c2ccccc2C1=O [PHYTONADIONE] | 0 | 0 | 0 | 1 | 0 | 1 | 0 | 0 | 0 | 0 | 0 | 0 | 0 | 0 | –
10 | CC[C@@H]1C(=O)OC[C@@H]1Cc1cncn1C [PILOCARPINE] | 0 | 0 | 0 | 4 | 1 | 1 | 0 | 0 | 0 | 0 | 0 | 1 | 0 | 1 | –
11 | CC[C@@H]1/C=C(\C)C[C@H](C)C[C@H](OC)[C@H]2O[C@@](O)(C(=O)C(=O)N3CCCC[C@H]3C(=O)O[C@H](/C(C)=C/[C@@H]3CC[C@H](Cl)[C@H](OC)C3)[C@H](C)[C@@H](O)CC1=O)[C@H](C)C[C@@H]2OC [PIMECROLIMUS] | 0 | 0 | 0 | 0 | 0 | 0 | 0 | 0 | 0 | 0 | 0 | 0 | 0 | 0 | –
12 | O=c1[nH]c2ccccc2n1C1CCN(CCCC(c2ccc(F)cc2)c2ccc(F)cc2)CC1 [PIMOZIDE] | 0 | 0 | 0 | 0 | 0 | 0 | 0 | 0 | 0 | 0 | 0 | 0 | 0 | 0 | –
13 | COc1cc(Br)c(C[N+]2(CCOCCC3CCC4CC3C4(C)C)CCOCC2)cc1OC.[Br-] (configuration not stated) [PINAVERIUM BROMIDE] | – | – | – | – | – | – | – | – | – | – | – | – | – | – | HepSE_jaundice (Hepatotoxicity [1]; Liver): 0; HepSE_hepatomegaly (Hepatotoxicity [2]; Liver): 0; HepSE_liver fatty (Hepatotoxicity [3]; Liver): 0; HepSE_Combined Scores (Hepatotoxicity [4]; Liver): 0; HepSE_cholelithiasis (Hepatotoxicity [5]; Liver): 0; HepSE_bilirubinemia (Hepatotoxicity [6]; Liver): 0; HepSE_hepatic failure (Hepatotoxicity [7]; Liver): 0; HepSE_elevated liver function tests (Hepatotoxicity [8]; Liver): 0; HepSE_liver disease (Hepatotoxicity [9]; Liver): 0; HepSE_cholecystitis (Hepatotoxicity [10]; Liver): 0; HepSE_hepatic necrosis (Hepatotoxicity [11]; Liver): 0; HepSE_liver function tests abnormal (Hepatotoxicity [12]; Liver): 0; HepSE_cirrhosis (Hepatotoxicity [13]; Liver): 0; HepSE_hepatitis (Hepatotoxicity [14]; Liver): 0
14 | CC(C)NCC(O)COc1cccc2[nH]ccc12 (configuration not stated) [PINDOLOL] | 0 | 0 | 0 | 0 | 0 | 0 | 0 | 0 | 0 | 0 | 0 | 0 | 0 | 0 | –
15 | CCc1ccc(CCOc2ccc(CC3SC(=O)NC3=O)cc2)nc1 (configuration not stated) [PIOGLITAZONE] | 0 | 0 | 0 | 3 | 0 | 0 | 1 | 0 | 0 | 0 | 0 | 1 | 0 | 1 | –
16 | CCN1CCN(C(=O)N[C@@H](C(=O)N[C@@H]2C(=O)N3[C@@H]2SC(C)(C)[C@@H]3C(=O)O)c2ccccc2)C(=O)C1=O [PIPERACILLIN] | 0 | 0 | 0 | 3 | 0 | 1 | 0 | 0 | 1 | 0 | 0 | 0 | 0 | 1 | –
17 | CN(C)S(=O)(=O)c1ccc2c(c1)N(CCCN1CCC(CCO)CC1)c1ccccc1S2 [PIPOTIAZINE] | 1 | 0 | 0 | 1 | 0 | 0 | 0 | 0 | 0 | 0 | 0 | 0 | 0 | 0 | –
18 | CC(C)(C)NCC(O)c1ccc(O)c(CO)n1 (configuration not stated) [PIRBUTEROL] | 0 | 0 | 0 | 0 | 0 | 0 | 0 | 0 | 0 | 0 | 0 | 0 | 0 | 0 | –
